Data taken from patent publication US9011882B2, “Dimethylarginine dimethylaminohydrolase inhibitors and methods of use thereof” (The Board of Trustees of the Leland Stanford Junior …, priority 2012, dated 2015).
“Also recorded” adds a separate entry of the source.

Legend:
[1] = target: T1, human DDAH1 (Homo sapiens (Human), UniProt O94760); assay: Inhibitors of human DDAH-1 validated in full dose-response curves (Table 1); assay type: biochemical; details: for IC50: Assay Explorer software
Method: (§1) Over 130,000 small molecules deposited in the Stanford High-throughput Bioscience Center (HTBC) were screened using the enzymatic assay to identify chemicals that regulate DDAH activity. In brief, recombinant human DDAH1 (rhDDAH1) was mixed with ADMA in the presence of screening buffer in 384-well plates using a Staccato multidrop. Small molecules (100 nL each) were then added to the wells using a robotic arrayer to yield a final compound screening concentration of up to 50 μM. Plates were incubated at 37° C. for 4 hours. Subsequently, color developing reagent (containing 2 volumes of Antipyrine and 1 volume of 2,3-Butanedione oxime reagents) was added using Velocity 11 system and the plates were sealed using an automated plate sealer. Finally, color was developed by incubating the plates at 60° C. for 90 minutes prior to spinning them at 1,500 rpm for 5 minutes. In this assay absorbance is proportional to the concentration of citrulline generated by DDAH, and was measured using an AnalystGT plate reader at 485 nm using a dichroic beamsplitter. The signal-to-noise ratio of separation was calculated using an established formula in Zhang. (Zhang, J. H., Chung, T. D. & Oldenburg, K. R. A Simple Statistical Parameter for Use in Evaluation and Validation of High Throughput Screening Assays. J Biomol Screen 4, 67-73 (1999)).
Inhibitors were defined as compounds that reduce absorbance by at least 30% compared to control wells. The hits were validated using 8-point full dose response study (50 μM to 0.39 μM in serial dilutions). […] To determine which of these hits were true inhibitors of DDAH activity, a modification of a validated secondary fluorometric assay was used, as described below. […]

[2] = target: T1, human DDAH1; assay: Fluorimetric CPM assay of DDAH activity (SMTC substrate); assay type: biochemical; details: for inhibition of DDAH activity, CPM fluorometric validation: fresh powders from vendors, vs vehicle; for IC50: CPM assay, 100 μM SMTC, Assay Explorer software, read-out: IC50
Method: (§2) The activity of human DDAH1 was quantified using fluorimetric assay by incubating the enzyme with an artificial substrate S-methyl-thiocitrulline (SMTC). DDAH metabolizes SMTC into L-citrulline and methanethiol (CH3—SH). The thiol released from the reaction can be monitored fluorimetrically by adding 7-Diethylamino-3-(4-maleimidophenyl)-4-methylcoumarin (CPM).
as §2, with “(SMTC), as described in Example 1.” for “(SMTC).”
For the secondary assay, a fluorimetric assay that uses SMTC as a substrate was adapted. DDAH metabolizes SMTC into L-citrulline and methanethiol (CH3—SH). In brief, DDAH (30 nM final concentration) was mixed with SMTC (100 μM final concentration), CPM (50 μM final concentration) and screening buffer (containing a final concentration of 0.01% Triton-X100 and 1 mM EDTA). The reaction mix was added to black 384-well plates to validate primary hits that modulate DDAH activity. The release of CH3—SH was monitored fluorimetrically by adding 7-Diethylamino-3-(4-maleimidophenyl)-4-methylcoumarin (CPM) as described in Linsky (Linsky, T. & Fast, W. A continuous, fluorescent, high-throughput assay for human dimethylarginine dimethylaminohydrolase-1. J Biomol Screen 16, 1089-1097 (2011)).

[3] = target: recombinant human DDAH1 (rhDDAH1) (Homo sapiens (Human), UniProt O94760); assay: Colorimetric L-citrulline assay of DDAH activity (ADMA substrate; high throughput screen and orthogonal validation); assay type: biochemical; details: for IC50: high throughput screen of library copies (BMF-6, BMF-7, BMF-8, MicroSource, LOPAC), dose-dependent inhibition
Method: (§3) The enzymatic activity of DDAH was monitored using a colorimetric assay that detects product (L-citrulline) formation from the substrate ADMA. In brief, recombinant human DDAH1 (rhDDAH1) was mixed with ADMA in the presence of screening buffer in 384-well plates. Plates were incubated at 37° C. for 4 hours. Subsequently, color developing reagent (containing 2 volumes of Antipyrine and 1 volume of 2,3-Butanedione oxime reagents) was added and the plates were incubated at 60° C. for 90 min prior to spinning them at 1,500 rpm for 5 min. In this assay absorbance is proportional to the concentration of citrulline generated by DDAH, and was measured using an AnalystGT plate reader at 485 nm using a dichroic beamsplitter.
as §3, with “ADMA, as described in Example 1.” for “ADMA.”, “antipyrine” for “Antipyrine”
The L-citrulline assay was based upon an original test-tube method developed by Prescott and Jones in 1969 (Prescott, L. M. & Jones, M. E. Modified methods for the determination of carbamyl aspartate. Anal Biochem 32, 408-419 (1969)), which was adapted and optimized for a microplate format. Subsequently, the activity of DDAH was quantified by detecting its conversion of ADMA to citrulline using the optimized protocol. The assay was scaled up to a 384-well format for high throughput chemical screening.
as §1
In brief, various amounts of rhDDAH1 (0.1 to 10 μM) were incubated with various concentrations of ADMA (1 μM to 8 mM) for various time points (30 min to 10 h) at room temperature or 37° C. […] The reactions were stopped and color was developed as described above followed by incubation at 60° C. for 90 min. Absorbance, proportional to DDAH activity, was measured at 485 nm±20 nm. In order to screen the entire library, the biochemical properties of the assay were optimized, as described above. The technique was modified so as to reduce the number of steps and facilitate robotic handling and throughput. Subsequently, HTS was performed using 384-well plates. […]

[4] = system: human microvascular endothelial cells (HMEC-1); assay: Intracellular ADMA by ELISA in endothelial cells; assay type: cell-based; details: 20 μM, 24 hours, compared to vehicle control
Method: (§4) First, human microvascular endothelial cells (HMEC-1; ATCC) were seeded in 75 cm^2 cell culture flasks and cultured in fully supplemented DMEM (Invitrogen cat #11995; supplemented with 10% fetal bovine serum (FBS), 4 mM HEPES; GIBCO 15630 and penicillin/streptomycin). The cells were incubated at 37° C./5% CO2 until ˜60% confluency. The cells were then washed with phosphate buffered saline (PBS) and plain DMEM (DMEM with no addition of serum or the other supplements) was mixed with esomeprazole (20 μM final concentration from 100 mM stock) and added to the cells. […] After ˜4 hrs of incubation, the media was aspirated from each flask and the cells were cultured in fully supplemented DMEM as described above and incubated at 37° C./5% CO2 for another 20 hrs. The serum was initially withdrawn due to the possibility that esomeprazole would interact with Cys containing serum proteins and fail to internalize at effective concentrations.
After 24 hrs, the cells were harvested. Total cellular protein was estimated as described and ADMA was measured by enzyme-linked immunosorbent assay (ELISA) following the manufacturer's recommendations; DLD Diagnostika, Hamburg, Germany).
as §4, with “FBS,” for “fetal bovine serum (FBS),”, “PBS” for “phosphate buffered saline (PBS)”, “PD 404” for “esomeprazole”, “conc” for “concentration”, “The serum was initially withdrawn due to the possibility that esomeprazole would interact with Cys containing serum proteins and fail to internalize at effective concentrations.” left out
After 24 hours, the cells were harvested. Total cellular protein was estimated as described and ADMA was measured by ELISA following the manufacturer's recommendations; DLD Diagnostika, Hamburg, Germany).

[5] = fresh powders, FIG. 3, vs vehicle
[6] = 50 μM, compared to vehicle control

T1 sequence (O94760 whole entry): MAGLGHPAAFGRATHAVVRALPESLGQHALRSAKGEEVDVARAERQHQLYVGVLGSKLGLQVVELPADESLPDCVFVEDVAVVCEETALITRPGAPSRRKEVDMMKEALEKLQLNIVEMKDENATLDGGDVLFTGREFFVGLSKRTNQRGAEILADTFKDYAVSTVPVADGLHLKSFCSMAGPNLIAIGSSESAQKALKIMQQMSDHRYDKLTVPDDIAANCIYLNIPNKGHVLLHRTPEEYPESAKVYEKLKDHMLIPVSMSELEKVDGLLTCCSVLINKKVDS
recombinant human DDAH1 (rhDDAH1), sequence (O94760 whole entry): as above

Cc1cc(C)c2c(=O)n(CC(=O)NCCCSC3CCCCC3)sc2n1
Hill Slope [1]: 1.6
IC50 [1]: 12.8 µM

COCCCOc1ccnc(C[S+]([O-])c2nc3ccccc3[nH]2)c1C (centres unmarked) [Rabeprazole]
inhibition of DDAH activity, CPM fluorometric validation [2]: inhibited DDAH activity significantly
inhibition of DDAH activity, orthogonal colorimetric assay [3, 5]: significantly inhibited DDAH activity

O=C(O)c1ccc(N2C(=O)C=CC2=O)cc1
Hill Slope [1]: 1.6
IC50 [1]: 23.3 µM

Cc1ccc(NC(=O)/C=C/C(N)=O)cc1
Hill Slope [1]: 1.1
IC50 [1]: 21.2 µM

CCOCCCNC(=O)Cn1sc2nc(C)cc(C)c2c1=O
Hill Slope [1]: 2.3
IC50 [1]: 7.1 µM

Cc1cc(C)c2c(=O)n(CC(=O)NCc3ccc4c(c3)OCO4)sc2n1
Hill Slope [1]: 1.5
IC50 [1]: 11 µM

O=c1c2ccccc2[se]n1-c1ccccc1 [ebselen]
inhibition of DDAH activity, CPM fluorometric validation [2]: confirmed known DDAH inhibitors

CCOc1ccc(CCNC(=O)Cn2sc3nc(C)cc(C)c3c2=O)cc1
Hill Slope [1]: 1.5
IC50 [1]: 10.5 µM

CN=c1nc(-c2ccccc2)n(-c2ccccc2)s1 [SCH-202676]
IC50 [2]: 13.3 µM

COc1ccnc(C[S+]([O-])c2nc3cc(OC(F)F)ccc3[nH]2)c1OC (centres unmarked) [Pantoprazole]
inhibition of DDAH activity, CPM fluorometric validation [2]: inhibited DDAH activity significantly
IC50 [3]: 63 µM

COc1ccc2[nH]c([S+]([O-])Cc3ncc(C)c(OC)c3C)nc2n1 (centres unmarked) [Tenatoprazole]
inhibition of DDAH activity, CPM fluorometric validation [2]: inhibited DDAH activity significantly
IC50 [3]: 7.8 µM

Cc1cc(C)c2c(=O)n(CC(=O)NCCC3=CCCCC3)sc2n1
Hill Slope [1]: 2
IC50 [1]: 11.8 µM

COc1cnn(-c2ccccc2)c(=O)c1S [4-MMP, 4-mercapto-5-methoxy-2-phenyl-3(2H)-pyridazinone]
IC50 [2]: 12.7 µM

Cc1cc(C)c2c(=O)n(CC(=O)NCc3ccccc3Cl)sc2n1
Hill Slope [1]: 0.4
IC50 [1]: 39.9 µM

COc1ccc2nc([S@@+]([O-])Cc3ncc(C)c(OC)c3C)[nH]c2c1 [Esomeprazole]
inhibition of DDAH activity, CPM fluorometric validation [2]: inhibited DDAH activity significantly
inhibition of DDAH activity, orthogonal colorimetric assay [3, 5]: significantly inhibited DDAH activity
increase in intracellular ADMA [4]: ~37%

COc1ccc(OC)c(CCNC(=O)Cn2sc3nc(C)cc(C)c3c2=O)c1
Hill Slope [1]: 1.5
IC50 [1]: 9.9 µM

Cc1cc(C)c2c(=O)n(CC(=O)NC3CCCC(C)C3C)sc2n1 (centres unmarked)
Hill Slope [1]: 1.7
IC50 [1]: 8.6 µM

CCCCNC(=O)Cn1sc2nc(C)cc(C)c2c1=O
Hill Slope [1]: 1.7
IC50 [1]: 5.1 µM

O=C1CC(N2CCCCCC2)C(=O)N1c1cccc2ccccc12 (centres unmarked)
Hill Slope [1]: 1.8
IC50 [1]: 13.1 µM

Cc1cc(C)c2c(=O)n(CC(=O)NC(C)c3ccccc3)sc2n1 (centres unmarked)
Hill Slope [1]: 1.7
IC50 [1]: 13.7 µM

N/C=C1\C=C(c2ccccc2)OC1=S
Hill Slope [1]: 1.3
IC50 [1]: 17.7 µM

Cc1cc(C)c2c(=O)n(CC(=O)NC(C)CCc3ccccc3)sc2n1 (centres unmarked)
Hill Slope [1]: 1.6
IC50 [1]: 14.1 µM

Cc1cc(C)c2c(=O)n(CC(=O)NCCc3ccc(Cl)cc3)sc2n1
Hill Slope [1]: 1.2
IC50 [1]: 13.4 µM

Cc1c(OCC(F)(F)F)ccnc1C[S+]([O-])c1nc2ccccc2[nH]1 (centres unmarked) [Lansoprazole]
inhibition of DDAH activity, CPM fluorometric validation [2]: inhibited DDAH activity significantly
IC50 [3]: 51 µM

Cc1ccc(-c2ccc(CCC(=O)O)o2)cc1
Hill Slope [1]: 1.1
IC50 [1]: 45.8 µM

O=c1[nH]sc2ccccc12 [Benzo[d]isothiazol-3(2H)-one]
Hill Slope [1]: 1
IC50 [1]: 13.2 µM

N=C1Sc2ccccc2C2=NCCCN12 [PD 404]
inhibition of DDAH activity, CPM fluorometric assay [2, 6]: directly inhibit DDAH activity; also recorded: inhibited DDAH activity significantly
inhibition of DDAH activity, orthogonal colorimetric assay [3, 6]: significantly inhibited DDAH activity
IC50 [3]: 8.71 µM
increase in intracellular ADMA [4]: ~84%

COCCNC(=O)Cn1sc2nc(C)cc(C)c2c1=O
Hill Slope [1]: 1.4
IC50 [1]: 3.3 µM
